In patent US20230147683A1, “TREATMENT” (UNION Therapeutics A/S, priority 2020, published 2023):

System: European D614G strain of SARS-CoV-2 (BavPat1/2020)
Type: cell-based

O=C(Nc1ccc([N+](=O)[O-])cc1Cl)c1cc(Cl)ccc1O [niclosamide ethanolamine]
reduction of intracellular viral RNA level compared to non-treated control: 3 fold
